According to patent US7393824B1, “Methods of peptide preparation” (Lytix Biopharma, priority 2000, dated 2008):
Where two headings read alike, the source gives them in different places. Residues, ends and D or L forms follow the SMILES beside them.

Columns and labels:
[1] = tested on: MRC-5 cells (normal fibroblasts); experiment: Fibroblast assay (MTT); type: cell-based
Protocol: The cells were washed with PBS and then trypsinated using 2 ml trypsin (for a 80 cm culture flask). After the cells had detached from the wall, usually after ca 3 min. of incubation, 5 ml medium with FBS were added. The cells were resuspended and counted. The cells were then transferred to a centrifugation tube and spinned at 1500 rpm for 10 min. The supernatant was removed and the cells resuspended to a concentration of 1×10^5 cells/ml. 100 ul cells suspension was transferred to each well in a 96-well microtiter plate and incubated for 25 hours to allow the cells to attach. Following the incubation, the medium containing serum was removed by turning the plate upside down against a piece of tissue. 100 ul medium without serum and L-glutamine (assay medium) was added to each well, and then removed as before. This was done to remove any trace of serum. […] The rest of the assay was done as previously described for methA, except that after the 2 hour incubation following MTT addition, 80 ul medium instead of 130 ul were removed.

[2] = tested on: Staphylococcus aureus ATCC 25923; type: cell-based
Protocol: (§1) The bacterial strains used were: Escherichia coli ATCC 25922 and Staphylococcus aureus ATCC 25923. All strains were stored at −70° C. The bacteria were grown in 2% Bacto Peptone water (Difco 1807-17-4). All tests were performed with bacteria in mid-logarithmic growth phase. Determination of the minimum inhibitory concentration (MIC) of the peptides for bacterial strains were performed in 1% Bacto Peptone water. A standard microdilution technique with an inoculum of 2×10^6 CFU/ml was used. All assays were performed in triplets. Since the peptides are positively charged and therefore could adhere to the plastic wells, we controlled the actual concentration of the peptides in the solution by HPLC. There was no difference between the concentration of the peptides before or after adding the solution to the plastic wells.

[3] = tested on: Escherichia coli ATCC 25922; type: cell-based
Protocol: as §1

[4] = tested on: Meth A murine sarcoma cell line; type: cell-based; conditions: for IC50: 4 h
Protocol: Peptide solutions (0.1 ml) were added and the plates incubated at 37° C. for 30 minutes, 4 hours or 24 hours. The cytotoxicity was measured using the MTT method (Mosmann et al., J. Immunol. (1986) 136, 2348-2357).

human red blood cells = experiment: Hemolytic assay; type: cell-based; conditions: for EC50: red cells of human
Protocol: The hemolytic activities of the peptides were determined using fresh human red blood cells. 8 ml blood was taken from a healthy person. 4 ml blood was transferred to a polycarbonate tube containing heparin to a final concentration of 10 U/ml, and the remaining 4 ml blood was transferred to a glass tube containing EDTA with final concentration of 15% EDTA. The erythrocytes were isolated from heparin-treated blood by centrifugation in 1500 rpm for 10 min and washed three times with phosphate-buffered saline (PBS) to remove plasma and buffy coat. The cell pellet was resuspended in PBS to make the final volume of 4 ml. The peptide was diluted to a concentration of 2 mg/ml and 0.1 mg/ml. The peptide was further diluted to the concentrations as stated in Table 1. For each tube PBS was added first, then RBCs and peptide solutions. The hematocrit in the blood treated with EDTA was determined after 30 min with Sysmex K-1000, and the resuspended RBCs were diluted into 10% hematocrit. RBCs in PBS (1%) with and without peptides (Table 18) were incubated in a shaker at […] for 1 hour and then centrifuged at 4000 rpm for 5 min. The supernatant were carefully transferred to new polycarbonate tubes and the absorbance of the supernatant was measured at 540 nm. Baseline hemolysis was hemoglobin released in the presence of PBS, and 100% hemolysis was hemoglobin released in the presence of 0.1% Triton X-100.

S. aureus = conditions: from the literature; cited from earlier work
E. coli = conditions: from the literature; cited from earlier work
human erythrocytes = conditions: cited from earlier work
fibroblasts = conditions: cited from earlier work

CSCC[C@H](NC(=O)[C@H](CCCNC(=N)N)NC(=O)[C@H](Cc1c[nH]c2ccccc12)NC(=O)[C@H](C)NC(=O)[C@H](Cc1c[nH]c2ccccc12)NC(=O)[C@H](CCCNC(=N)N)NC(=O)[C@H](Cc1ccccc1)NC(=O)[C@H](C)NC(=O)[C@H](CCCCN)NC(=O)[C@H](CCCNC(=N)N)NC(=O)[C@H](C)NC(=O)[C@H](C)NC(=O)[C@@H]1CCCN1)C(=O)N[C@@H](CC(C)C)C(=O)N[C@@H](CCCCN)C(=O)N[C@@H](CCCCN)C(=O)N[C@@H](C)C(=O)N[C@@H](C)C(=O)O [W3→A3, LFB 14-31A2,3,6,10,17F7K16L14R4] (H-PAARKAFRWAWRMLKKAA-OH)
toxicity to fibroblasts [1]: little toxicity against fibroblasts | Mic S. Aureus ([2]; ATCC 25923): 4.6 µM | Mic E-coli ([3]; ATCC 25922): 6.9 µM

CC[C@H](C)[C@H](NC(=O)[C@H](C)NC(=O)[C@@H]1CCCN1)C(=O)N[C@@H](CCCNC(=N)N)C(=O)N[C@@H](CCCCN)C(=O)N[C@@H](C)C(=O)N[C@@H](Cc1ccccc1)C(=O)N[C@@H](CCCNC(=N)N)C(=O)N[C@@H](Cc1c[nH]c2ccccc12)C(=O)N[C@@H](C)C(=O)N[C@@H](Cc1c[nH]c2ccccc12)C(=O)N[C@@H](CCCNC(=N)N)C(=O)N[C@@H](CCSC)C(=O)N[C@@H](CC(C)C)C(=O)N[C@@H](CCCCN)C(=O)N[C@@H](CCCCN)C(=O)N[C@@H](C)C(=O)N[C@@H](C)C(=O)O [W3→I3] (H-PAIRKAFRWAWRMLKKAA-OH; N-terminus and C-terminus assumed)
Mic S. Aureus ([2]; Table 2): 2/4 | Mic E-coli ([3]; Table 2): 2/4

CSCC[C@H](NC(=O)[C@H](CCCNC(=N)N)NC(=O)[C@H](C)NC(=O)[C@H](C)NC(=O)[C@H](C)NC(=O)[C@H](CCCNC(=N)N)NC(=O)[C@H](Cc1ccccc1)NC(=O)[C@H](C)NC(=O)[C@H](CCCCN)NC(=O)[C@H](CCCNC(=N)N)NC(=O)[C@H](Cc1c[nH]c2ccccc12)NC(=O)[C@H](C)NC(=O)[C@@H]1CCCN1)C(=O)N[C@@H](CC(C)C)C(=O)N[C@@H](CCCCN)C(=O)N[C@@H](CCCCN)C(=O)N[C@@H](C)C(=O)N[C@@H](C)C(=O)O [W9,11→A9,11, LFB 14-31A2,6,9,10,11,17F7K16L14R4] (H-PAWRKAFRAAARMLKKAA-OH)
IC50 [1]: > 489 µM | toxicity to fibroblasts [1]: no cytotoxic activity | IC50 [4]: 110 µM | Mic S. Aureus ([2]; ATCC 25923): 14.7 µM | Mic E-coli ([3]; ATCC 25922): 14.7 µM | cytotoxic / hemolytic activity against red blood cells (human red blood cells): no cytotoxic activity | EC50 (human red blood cells): > 489 µM

CC[C@H](C)[C@H](NC(=O)[C@H](C)NC(=O)[C@@H](NC(=O)[C@H](CCCNC(=N)N)NC(=O)[C@H](Cc1ccccc1)NC(=O)[C@H](C)NC(=O)[C@H](CCCCN)NC(=O)[C@H](CCCNC(=N)N)NC(=O)[C@H](Cc1c[nH]c2ccccc12)NC(=O)[C@H](C)NC(=O)[C@@H]1CCCN1)[C@@H](C)CC)C(=O)N[C@@H](CCCNC(=N)N)C(=O)N[C@@H](CCSC)C(=O)N[C@@H](CC(C)C)C(=O)N[C@@H](CCCCN)C(=O)N[C@@H](CCCCN)C(=O)N[C@@H](C)C(=O)N[C@@H](C)C(=O)O [W9,11→I9,11] (H-PAWRKAFRIAIRMLKKAA-OH; N-terminus and C-terminus assumed)
IC50 [1]: 26 µM | IC50 [4]: 22 µM | Mic S. Aureus ([2]; ATCC 25923): 19 µM | Mic E-coli ([3]; ATCC 25922): 35 µM | EC50 (human red blood cells): 284 µM

CSCC[C@H](NC(=O)[C@H](CCCNC(=N)N)NC(=O)[C@H](Cc1c[nH]c2ccccc12)NC(=O)[C@H](C)NC(=O)[C@H](C)NC(=O)[C@H](CCCNC(=N)N)NC(=O)[C@H](Cc1ccccc1)NC(=O)[C@H](C)NC(=O)[C@H](CCCCN)NC(=O)[C@H](CCCNC(=N)N)NC(=O)[C@H](Cc1c[nH]c2ccccc12)NC(=O)[C@H](C)NC(=O)[C@@H]1CCCN1)C(=O)N[C@@H](CC(C)C)C(=O)N[C@@H](CCCCN)C(=O)N[C@@H](CCCCN)C(=O)N[C@@H](C)C(=O)N[C@@H](C)C(=O)O [W9→A9, LFB 14-31A2,6,9,10,17F7K16L14R4] (H-PAWRKAFRAAWRMLKKAA-OH; N-terminus and C-terminus assumed)
Mic S. Aureus ([2]; ATCC 25923): 2.4 µM | Mic E-coli ([3]; ATCC 25922): 4.6 µM

CSCC[C@H](NC(=O)[C@H](CCCNC(=N)N)NC(=O)[C@H](C)NC(=O)[C@H](C)NC(=O)[C@H](Cc1c[nH]c2ccccc12)NC(=O)[C@H](CCCNC(=N)N)NC(=O)[C@H](Cc1ccccc1)NC(=O)[C@H](C)NC(=O)[C@H](CCCCN)NC(=O)[C@H](CCCNC(=N)N)NC(=O)[C@H](Cc1c[nH]c2ccccc12)NC(=O)[C@H](C)NC(=O)[C@@H]1CCCN1)C(=O)N[C@@H](CC(C)C)C(=O)N[C@@H](CCCCN)C(=O)N[C@@H](CCCCN)C(=O)N[C@@H](C)C(=O)N[C@@H](C)C(=O)O [W11→A11, LFB 14-31A2,6,10,11,17F7K16L14R4] (H-PAWRKAFRWAARMLKKAA-OH; N-terminus and C-terminus assumed)
fold decrease in activity against Meth A compared to LFB(14-31)m [4]: 1.5 fold | IC50 [4]: 11 µM | Mic S. Aureus ([2]; ATCC 25923): >1.2 µM | Mic E-coli ([3]; ATCC 25922): 4.6 µM

(KAAKKAA)3
MIC against S. aureus (S. aureus): 8 µM | MIC against E. coli (E. coli): 8 µM | activity against human erythrocytes (human erythrocytes): no measurable activity | activity against fibroblasts (fibroblasts): no measurable activity
